Converted amounts (≈) assume the structure as drawn.
How the values were obtained:
S. aureus (ATCC: 6538) [1] = experiment: Agar well diffusion, inhibition zone; type: cell-based, Staphylococcus aureus; details: Staphylococcus aureus, read-out: diameter of the inhibition zone
S. mutans (ATCC: 25175) [2] = experiment: Agar well diffusion, inhibition zone; type: cell-based, Streptococcus mutans; details: Streptococcus mutans, read-out: diameter of the inhibition zone
S. aureus (ATCC: 6538) [3] = experiment: MIC, twofold serial dilution; type: cell-based; details: Staphylococcus aureus, 24 h
S. mutans (ATCC: 25175) [4] = experiment: MIC, twofold serial dilution; type: cell-based; details: Streptococcus mutans, 24 h
E. coli (ATCC: 3008) [5] = experiment: Agar well diffusion, inhibition zone; type: cell-based, Escherichia coli; details: Escherichia coli, read-out: diameter of the inhibition zone
[6] = tested on: K. pneumonia (ATCC: 4415); experiment: Agar well diffusion, inhibition zone; type: cell-based, Klebsiella pneumonia; details: Klebsiella pneumoniae, read-out: diameter of the inhibition zone, K. pneumonia (ATCC: 4415), Gram (−ve), 15 mg/mL, mean ± SD
[7] = tested on: P. aeruginosa (ATCC: 27853); experiment: Agar well diffusion, inhibition zone; type: cell-based, Pseudomonas aeruginosa; details: for zone of inhibition at 15000 µg/mL: Pseudomonas aeruginosa, read-out: diameter of the inhibition zone
E. coli (ATCC: 3008) [8] = experiment: MIC, twofold serial dilution; type: cell-based; details: Escherichia coli, 24 h
[9] = tested on: K. pneumonia (ATCC: 4415); experiment: MIC, twofold serial dilution; type: cell-based; details: Klebsiella pneumoniae, 24 h, read after 24 h
[10] = tested on: P. aeruginosa (ATCC: 27853); experiment: MIC, twofold serial dilution; type: cell-based; details: Pseudomonas aeruginosa, 24 h
[11] = tested on: C. albicans (ATCC: 10231); experiment: Agar well diffusion, inhibition zone; type: cell-based, Candida albicans; details: C. albicans (ATCC: 10231), fungi, 15 mg/mL, mean ± SD
[12] = tested on: C. albicans (ATCC: 10231); experiment: MIC, twofold serial dilution; type: cell-based, Candida albicans; details: C. albicans (ATCC: 10231); read after 24 h
[13] = tested on: HFB4 human dermal fibroblast cell line; experiment: MTT cytotoxicity assay; type: cell-based; details: 48 h
human DHFR = biological target: T1, human DHFR (Homo sapiens, UniProt P00374); experiment: DHFR inhibitor screening kit; type: biochemical
T1 sequence (P00374 1-187): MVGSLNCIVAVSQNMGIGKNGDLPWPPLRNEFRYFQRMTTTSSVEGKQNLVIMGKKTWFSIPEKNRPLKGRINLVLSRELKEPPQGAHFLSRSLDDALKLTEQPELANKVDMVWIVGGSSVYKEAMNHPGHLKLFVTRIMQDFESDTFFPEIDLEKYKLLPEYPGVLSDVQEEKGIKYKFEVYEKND

[14] = read-out: Inhibition of DHFR enzyme

Row | Compound | zone of inhibition at 15000 µg/mL (S. aureus (ATCC: 6538) [1]) [mm] | zone of inhibition at 15000 µg/mL (S. mutans (ATCC: 25175) [2]) [mm] | MIC (S. aureus (ATCC: 6538) [3]) [µg/mL] | MIC (S. mutans (ATCC: 25175) [4]) [µg/mL] | zone of inhibition at 15000 µg/mL (E. coli (ATCC: 3008) [5]) [mm] | zone of inhibition at 15000 µg/mL [6] [mm] | zone of inhibition at 15000 µg/mL [7] [mm] | MIC (E. coli (ATCC: 3008) [8]) [µg/mL] | MIC [9] [µg/mL] | MIC [10] [µg/mL] | diameter of the inhibition zone [11] | MIC [12] [µg/mL] | IC50 [13] [µg/mL] | diameter of the inhibition zone ([7]; P. aeruginosa (ATCC: 27853), Gram (−ve), agar well diffusion, 15 mg/mL, mean ± SD) | IC50 (human DHFR) [nM] | inhibition at 0.01 µg/mL (human DHFR; [14]) [%] | inhibition at 0.1 µg/mL (human DHFR; [14]) [%] | inhibition at 1 µg/mL (human DHFR; [14]) [%] | inhibition at 10 µg/mL (human DHFR; [14]) [%]
1 | CC1(C)S[C@@H]2[C@H](NC(=O)[C@H](N)c3ccccc3)C(=O)N2[C@H]1C(=O)O [Ampicillin, reference compound] | 32 ± 0.5 | 22 ± 0.5 | 62.5 (≈ 179 µM) | 62.5 (≈ 179 µM) |  |  |  |  |  |  |  |  |  |  |  |  |  |  | 
2 | CNC(C)C1CCC(N)C(OC2C(N)CC(N)C(OC3OCC(C)(O)C(NC)C3O)C2O)O1 (stereo not drawn) [Gentamicin, reference compound] |  |  |  |  | 25 ± 0.1 | 32 ± 0.1 | 35 ± 0.1 | 31.2 (≈ 65.4 µM) | 62.5 (≈ 131 µM) | 125 (≈ 262 µM) |  |  |  |  |  |  |  |  | 
3 | C[C@@H]1[C@H](O)[C@@H](C)/C=C/C=C/CC/C=C/C=C/C=C/C=C/C(O[C@H]2O[C@H](C)[C@@H](O)[C@H](N)[C@@H]2O)CC2O[C@](O)(CC(O)C(O)CCC(O)CC(O)CC(O)CC(=O)O[C@H]1C)CC(O)C2C(=O)O (stereo partly drawn) [Nystatin, reference compound] |  |  |  |  |  |  |  |  |  |  | 28.0 ± 0.1 mm | 31.25 (≈ 33.7 µM) |  |  |  |  |  |  | 
4 | Nc1ccc(S(=O)(=O)Nc2ncccn2)cc1 [SD, sulfadiazine, reference compound] | 31.2 ± 2.1 | 16.3 ± 1.1 | 500 (≈ 2000 µM) | 125 (≈ 499 µM) | 19.8 ± 0.4 | 20.4 ± 0.9 | 24 ± 1.4 | 250 (≈ 999 µM) | 250 (≈ 999 µM) | 250 (≈ 999 µM) | no activity |  | 243 ± 46.1 (≈ 969 µM) |  |  |  |  |  | 
5 | Cc1ccc(S(=O)(=O)NNC(=O)Cc2nc3ccccc3s2)cc1 [compound 3b, N′-(2-(Benzo[d]thiazol-2-yl)acetyl)-4-methylbenzenesulfonohydrazide] | 17.6 ± 2.5 | 10.6 ± 0.5 | 1000 (≈ 2770 µM) | 1000 (≈ 2770 µM) | 17.3 ± 2.5 | 32 ± 2 |  | 250 (≈ 692 µM) |  |  | − |  | 165 ± 3.04 (≈ 456 µM) | − | 1020 | 17.9 | 33.4 | 60.9 | 81.5
